Reference: patent US10131619B2, “α-Asary-laldehyde ester, preparation method therefor, and application thereof” (NORTHWEST UNIVERSITY, priority 2014, dated 2018)
Marks after values point to notes of the source that are not given here.

Tests used:
KM mice = assay: Maximal Electroshock Seizure (MES) test; format: in vivo; details: for MES: 6 mice
Procedure: (§1) The antiepileptic pharmacological tests were carried out using the anti-epileptic drug development program implemented by the National Institutes of Health (NIH), comprising the Maximal Electroshock Seizure (MES) for evaluating antiepileptic activity and the Rotarodtest for examining neurotoxicity. In order to further study and evaluate the pharmacological mechanism of anticonvulsant effect in different chemical models, two classic chemical model pentarotetrazole and 3-mercaptopropionic acid were used.
(1) Maximal Electroshock Seizure (MES)
Procedure: KM mice were subjected to the following preliminary screening before they were tested, and only qualified mice were screened for the next experiment. The screening method was performed as follows: the day before the test, the test mice electrically stimulated at 15V, 60 Hz, wherein two electrodes were clamped in each ear of the mice and powered for 0.45 seconds. Mice with hind limb rigidity were included in the experimental mice and used for later experiments. The Maximal Electroshock Seizure tolerance test was performed as follows: mice were administered intragastrically with the test compound after it is dissolved, and then at 0.25 h, 0.5 h, 1 h, 2 h, 3 h and 4 h after the administration, stimulated with the electrodes in their ears at 15V, 60 Hz electric stimulation for 0.45 s, respectively. […] According to the dosing regimen, concentration gradient was designed and the mice were administered with the test compound at different concentration gradient and observed for the anticonvulsant activity. Finally, the half effective dose of the test compound at the maximum anticonvulsant activity was calculated according to the following equation: ED50=1 g^−1[Xm−i(ΣP−0.5)] SX50=i(ΣP−ΣP^2/n−1)^1/2 • 95% confidence limit for ED50=1 g^−1(1 gED50±1.96 SX50) • wherein the meanings of the symbols in the equation are as follows: • Xm common logarithm for the maximum dose; • i common logarithm for the ratio between doses • p positive rate for each group, expressed in decimal places • n the number of animals per group • SX50 standard error of 1 gED50

[1] = Neurotoxicity test (Rotarod test); format: in vivo; details: KM, mouse, in vivo, po
Procedure: as §1
(§2) Procedure: experimental mice were place on a rotating bar fatigue device rotating at 16 revolutions per minute at 0.25 h, 0.5 h, 1 h, and 2 h after intragastric administration, respectively. […] According to the dosing regimen, concentration gradient was designed and the mice was administered with the test compound at different concentration gradient and observed for the anticonvulsant activity. Half toxic dose (TD50) was calculated according to the following equation: TD50=1 g^−1[Xm−i(ΣP−0.5)] SX50=i(ΣP−σP^2/n−1)^1/2 • 95% confidence limit for TD50=1 g^−1(1 gTD50±1.96 SX50) • wherein the meanings of the symbols in the equation are as follows: • Xm common logarithm for the maximum dose; • i common logarithm for the ratio between doses • p positive rate for each group, expressed in decimal places • n the number of animals per group • SX50 standard error of 1 gTD50

mice [2] = assay: Neurotoxicity test (Rotarod test); format: in vivo
Procedure: as §1, §2

[3] = system: 3-mercaptopropionic acid-induced epilepsy mice model; assay: 3-mercaptopropionic acid-induced epilepsy experimental model; format: in vivo; details: for clonic seizures / latency / mortality rate / tonic seizures: n=6
Excerpt: (4) 3-mercaptopropionic Acid-induced Epilepsy Experimental Model

[4] = system: pentylenetetrazole-induced epilepsy mice model; assay: Pentylenetetrazole-induced epilepsy experimental model; details: for clonic seizures / latency / mortality rate / tonic seizures: n=6
Procedure: In order to deduce the possible anticonvulsant mechanism of α-Asaronol 3,4,5-trimethoxycinnamate, in this study, pentylenetetrazole, 3-mercaptopropionic acid and other chemical test modes were used to initially evaluate the anticonvulsant activity of the test compound (i.g: 160 mg/kg, 80 mg/kg, 40 mg/kg).
(3) Pentylenetetrazole-induced Epilepsy Experimental Model
Procedure: mice were randomly divided into five groups: treatment group (i.g: 160 mg/kg, 80 mg/kg, 40 mg/kg), control group and blank group (n=6). The treatment group was intragastrically administrated with the test compound, the control group with the positive drug carbamazepine, and the blank group with physiological saline. After 30 minutes, the mice were intragastrically administrated with pentylenetetrazole at 200 mg/kg. Each test animal was placed in one cage and observed for 60 minutes. The latency of clonic seizures, the number of clonic seizures, the number of tonic seizures, and the number of deaths for mice of each group were recorded.

mice [5] = details: Wang S. S. 1995; cited from earlier work

## COc1cc(OC)c(OC)cc1/C=C/COC(=O)/C=C/c1cc(OC)c(OC)c(OC)c1
KM mice; Mus musculus, po, MES, mice, i.g., 95% confidence limit 63.1-128.8, read-out: ED50 (half effective dose)
  ED50: 90.3 mg/kg
KM mice; i.g. 40 mg/kg, 0.25 h
  MES: 4/6
KM mice; i.g. 40 mg/kg, 0.5 h
  MES: 5/6
KM mice; i.g. 40 mg/kg, 1 h
  MES: 6/6
KM mice; i.g. 40 mg/kg, 2 h
  MES: 6/6
KM mice; i.g. 40 mg/kg, 3 h
  MES: 6/6
KM mice; i.g. 40 mg/kg, 4 h
  MES: 6/6
KM mice; i.g. 56 mg/kg, 0.25 h
  MES: 3/6
KM mice; i.g. 56 mg/kg, 0.5 h
  MES: 4/6
KM mice; i.g. 56 mg/kg, 1 h
  MES: 4/6
KM mice; i.g. 56 mg/kg, 2 h
  MES: 5/6
KM mice; i.g. 56 mg/kg, 3 h
  MES: 5/6
KM mice; i.g. 56 mg/kg, 4 h
  MES: 5/6
KM mice; i.g. 78 mg/kg, 0.25 h
  MES: 3/6
KM mice; i.g. 78 mg/kg, 0.5 h
  MES: 3/6
KM mice; i.g. 78 mg/kg, 1 h
  MES: 3/6
KM mice; i.g. 78 mg/kg, 2 h
  MES: 3/6
KM mice; i.g. 78 mg/kg, 3 h
  MES: 4/6
KM mice; i.g. 78 mg/kg, 4 h
  MES: 4/6
KM mice; i.g. 110 mg/kg, 0.25 h
  MES: 2/6
KM mice; i.g. 110 mg/kg, 0.5 h
  MES: 1/6
KM mice; i.g. 110 mg/kg, 1 h
  MES: 1/6
KM mice; i.g. 110 mg/kg, 2 h
  MES: 2/6
KM mice; i.g. 110 mg/kg, 3 h
  MES: 3/6
KM mice; i.g. 110 mg/kg, 4 h
  MES: 3/6
KM mice; i.g. 154 mg/kg, 0.25 h after administration
  MES: 1/6^c
KM mice; i.g. 154 mg/kg, 0.5 h
  MES: 0
KM mice; i.g. 154 mg/kg, 1 h
  MES: 1/6
KM mice; i.g. 154 mg/kg, 2 h
  MES: 1/6
KM mice; i.g. 154 mg/kg, 3 h
  MES: 3/6
KM mice; i.g. 154 mg/kg, 4 h
  MES: 3/6
KM mice; mice, i.g.
  anticonvulsant activity in the Maximal Electroshock Seizure test (in words): good anticonvulsant activity
[1]
  TD50: 940 mg/kg
Mice [2]; mice, i.g., rotarod TD50 / MES ED50
  PI, protection index (TD50/ED50): 10.4
Mice [2]; mouse, in vivo
  toxicity (in words): did not show significant toxicity
[3]; 160 mg/kg, 80 mg/kg
  effect on inhibiting the tonic seizure and reducing the mortality compared with carbamazepine: comparable effect
[3]; 160 mg/kg, 80 mg/kg, p<0.05
  time of clonic seizure compared with the physiological saline group: significantly prolong
[3]; i.g. 40 mg/kg
  clonic seizures: 100%
  latency: 185.3 ± 39.8 s
  mortality rate: 50%
  tonic seizures: 50%
[3]; i.g. 80 mg/kg
  clonic seizures: 83.3%
  latency: 192.8 ± 85.1 s
  mortality rate: 33.3%
  tonic seizures: 33.3%
[3]; i.g. 160 mg/kg, 30 min before 3-mercaptopropionic acid 60 mg/kg
  latency: 241.5 ± 80.4 s
[3]; i.g. 160 mg/kg
  clonic seizures: 50%
  mortality rate: 33.3%
  tonic seizures: 33.3%
[3]; mouse, in vivo
  3-mercaptopropionic acid-induced seizures (in words): moderately reduce
[4]; 160 mg/kg, 80 mg/kg, 40 mg/kg, p<0.05
  time of clonic seizure compared with the physiological saline group: significantly prolong
[4]; at the same dose
  effect on inhibiting the tonic seizure and reducing the mortality compared with carbamazepine: comparable effect
[4]; i.g. 40 mg/kg
  clonic seizures: 100%
  latency: 205.6 ± 40.5 s
  mortality rate: 100%
  tonic seizures: 50%
[4]; i.g. 80 mg/kg
  clonic seizures: 83.3%
  latency: 253.6 ± 58.2 s
  mortality rate: 66.7%
  tonic seizures: 33.3%
[4]; i.g. 160 mg/kg, 30 min before pentylenetetrazole 200 mg/kg
  latency: 370.0 ± 84.8 s
[4]; i.g. 160 mg/kg
  clonic seizures: 50%
  mortality rate: 16.7%
  tonic seizures: 33.3%

## COC(=O)C=Cc1cc(OC)c(OC)c(OC)c1 [M-TMCA, methyl 3,4,5-trimethoxycinnamic acid]
Mice [5]
  time of pentobarbital sodium-induced sleep in mice: prolong

## COc1ccc(C=CC(=O)O)cc1 [PMCA, p-methoxycinnamic acid]
Mice [5]
  time of pentobarbital sodium-induced sleep in mice: prolong

## COc1cc(C=CC(=O)O)cc(OC)c1OC [TMCA, 3,4,5-trimethoxycinnamic acid]
Mice [5]
  time of pentobarbital sodium-induced sleep in mice: prolong

## NC(=O)N1c2ccccc2C=Cc2ccccc21 [carbamazepine, reference compound]
[3]; i.g. 83 mg/kg
  clonic seizures: 100%
  latency: 277.2 ± 93.1 s
  mortality rate: 33.3%
  tonic seizures: 33.3%
[4]; i.g. 83 mg/kg
  clonic seizures: 100%
  latency: 476.8 ± 100.5 s
  mortality rate: 50%
  tonic seizures: 33.3%
